Data published in US6596707B2, “Monovalent saccharides and uses thereof” (priority 2001, dated 2003).

Tests used:
[1] = target: Shiga-like toxin II (SLT II) (Escherichia phage 933W, UniProt P09386); assay type: cell-based, E. coli O157:H7
[2] = Pharmacokinetics of globotriose in mice after IV or oral administration
[3] = target: Shiga-like toxin I (SLT I) (Bacteriophage H30, UniProt P69178)
[4] = Toxicity of globotriose administered to mice (previous pharmacokinetic studies)

Chain of Shiga-like toxin I (SLT I) (P69178 whole entry, looked up): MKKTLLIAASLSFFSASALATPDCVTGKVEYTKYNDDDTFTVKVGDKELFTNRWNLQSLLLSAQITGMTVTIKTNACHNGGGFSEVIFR
Chain of Shiga-like toxin II (SLT II) (P09386 whole entry, looked up): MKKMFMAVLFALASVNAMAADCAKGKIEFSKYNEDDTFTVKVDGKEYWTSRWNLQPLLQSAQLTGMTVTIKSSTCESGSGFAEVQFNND

Compound: OC[C@H]1O[C@H](O[C@@H]2[C@H](O)[C@@H](O)[C@H](O[C@H]3[C@H](O)[C@@H](O)C(O)O[C@@H]3CO)O[C@@H]2CO)[C@H](O)[C@@H](O)[C@H]1O (stereo partly drawn) [globotriose, galactose α1,4 galactose β1,4 glucose]
- inhibition of cell death from SLT II [1]: 8%
- clearance kinetics ([2]; IV administered): bi-exponential clearance kinetics
- time over which excreted through the kidneys ([2]; IV administered): > 24 h
- bioavailable (oral dose crossed into circulation) ([2]; orally administered): approximately 10%
- excreted in the urine, time post-dose ([2]; orally administered): up to 48 hours
- fate of the majority of orally administered dose ([2]; orally administered): excreted into the feces unmetabolized
- kinetics ([2]; orally administered): bi-exponential kinetics
- inhibition of cell death from SLT I [3]: 52%
- reduction of cytotoxicity (SLT I), toxin pre-attached [3]: 33%
- toxic effects after intravenous administration ([4]; intravenously 333 mg/kg): no toxic effects
- toxic effects after oral administration ([4]; orally 3333 mg/kg): no toxic effects
